Reference: patent publication US20160318892A1, “PRODRUG COMPOUNDS” (PROXIMAGEN LIMITED, priority 2013, published 2016)
≈ marks a conversion by molar mass, not a printed value. Like-named read-outs stand apart in the source and are kept apart here. Each block holds one compound with its values, some of them ahead of it.

Tests used:
[1] = Solubility in aqueous solutions; format: physicochemical; conditions: aqueous solution
From the text: In an embodiment prodrugs of the present invention are suitable for oral administration. The skilled person understands that the pH of the gastrointestinal tract changes along its length. For example, the stomach has a pH of around pH 1.5 and the GI tract after the stomach has a pH of around 5 to 7.5. For more detail see, for example, Measurement of gastrointestinal pH profiles in normal ambulant human subjects, Gut. 1988 August; 29(8): 1035-1041. Improved solubility is expected to result in improved absorption, and therefore improved oral bioavailability. Thus improved solubility at any pH value between around pH 1.5 to 8 is expected to improve oral bioavailability. Compounds of the invention were assessed for solubility in aqueous solutions having a pH of from 2 to 10. In an embodiment prodrugs of the invention have a solubility of >0.5 mg/mL in an aqueous solution having a pH of from 2 to 8. In an embodiment prodrugs have a solubility of >5.0 mg/mL, or >10.0 mg/mL, >100.0 mg/mL, or >200.0 mg/mL. In an embodiment the prodrugs have the aforementioned aqueous solubility at a pH within the range of from 4 to 8, or from 6 to 8.
In an embodiment prodrugs of the invention are administered intravenously. High prodrug solubility is advantageous in order to reduce the volume of solution administered to the patient, and to reduce the risk of damage to the circulatory system. Solubility of >10 mg/mL is preferred. Yet more preferred is solubility of >30 mg/mL or >100.0 mg/mL. Yet more preferred is solubility of >200.0 mg/mL. The solubility is measured in an aqueous solution having a pH of from 2 to 10, which pH range is advantageous for intravenous prodrug delivery. See, for example, A guide on intravenous drug compatibilities based on their pH, Nasser S C et al./Pharmacie Globale (IJCP) 2010, 5 (01)). In an embodiment the prodrugs of the claimed invention have solubility of >10 mg/mL in an aqueous solution having a pH of from 2 to 10.

[2] = tested on: unique stereo-selective site in rat brain; conditions: cited from earlier work
high K+ evoked CSD [3] = conditions: cats; cited from earlier work
high K+ evoked CSD [4] = conditions: rats; cited from earlier work
[5] = tested on: unique stereo-selective site in human brain; conditions: cited from earlier work

SMILES: CC(=O)c1ccc2c(c1)[C@H](NC(=O)c1ccc(F)cc1)[C@@H](OP(=O)(O)O)C(C)(C)O2 [Example 1, {[(3R,4S)-6-Acetyl-4-[(4-fluorobenzene)amido]-2,2-dimethyl-3,4-dihydro-2H-1-benzopyran-3-yl]oxy}phosphonic acid]
solubility ([1]; aqueous buffer, pH 7.0): ~10000 µg/mL (≈ 22.9 mM)

SMILES: CC(=O)c1ccc2c(c1)[C@H](NC(=O)c1ccc(F)cc1)[C@@H](OCOP(=O)([O-])O)C(C)(C)O2.[Na+] [Example 2, Sodium {[(3R,4S)-6-Acetyl-4-[(4-fluorobenzene)amido]-2,2-dimethyl-3,4-dihydro-2H-1-benzopyran-3-yl]oxy}methyl hydrogen phosphate]
solubility ([1]; aqueous buffer, pH 4.0): > 10000 µg/mL

SMILES: CC(=O)c1ccc2c(c1)[C@H](NC(=O)c1ccc(F)cc1)[C@@H](OC(=O)[C@@H](N)C(C)C)C(C)(C)O2.Cl [Example 3, (3R,4S)-6-Acetyl-4-[(4-fluorobenzene)amido]-2,2-dimethyl-3,4-dihydro-2H-1-benzopyran-3-yl (2S)-2-amino-3-methylbutanoate hydrochloride]
solubility ([1]; pH 3.6, aqueous buffer): < 1000 µg/mL

SMILES: CC(=O)c1ccc2c(c1)[C@H](NC(=O)c1ccc(F)cc1)[C@@H](OC(=O)[C@@H](NC(=O)[C@@H](N)C(C)C)C(C)C)C(C)(C)O2.Cl [Example 4, (3R,4S)-6-Acetyl-4-[(4-fluorobenzene)amido]-2,2-dimethyl-3,4-dihydro-2H-1-benzopyran-3-yl (2S)-2-[(2S)-2-amino-3-methylbutanamido]-3-methylbutanoate hydrochloride]
solubility ([1]; pH 4.2, aqueous buffer): > 10000 µg/mL

SMILES: CC(=O)c1ccc2c(c1)[C@H](NC(=O)c1ccc(F)c(Cl)c1)[C@H](O)C(C)(C)O2 [Tonabersat]
binding affinity to unique stereo-selective site [2]: high affinity
inhibition of high K+ evoked CSD (high K+ evoked CSD [3]): inhibits
inhibition of high K+ evoked CSD (high K+ evoked CSD [4]): inhibits
binding affinity to unique stereo-selective site [5]: high affinity

The next lines start with the values.

solubility ([1]; pH 5.1, aqueous buffer): > 5000 µg/mL
SMILES: CC(=O)c1ccc2c(c1)[C@H](NC(=O)c1ccc(F)cc1)[C@@H](OC(=O)CN)C(C)(C)O2.Cl [Example 5, (3R,4S)-6-Acetyl-4-[(4-fluorobenzene)amido]-2,2-dimethyl-3,4-dihydro-2H-1-benzopyran-3-yl 2-aminoacetate hydrochloride]

solubility ([1]; pH 6.1, aqueous buffer): > 10000 µg/mL
SMILES: CC(=O)c1ccc2c(c1)[C@H](NC(=O)c1ccc(F)cc1)[C@@H](OC(=O)CNC(=O)[C@@H]1CCCN1)C(C)(C)O2.Cl [Example 6, (3R,4S)-6-Acetyl-4-[(4-fluorobenzene)amido]-2,2-dimethyl-3,4-dihydro-2H-1-benzopyran-3-yl 2-[(2S)-pyrrolidin-2-ylformamido]acetate hydrochloride]

solubility ([1]; pH 3.5, aqueous buffer): < 1000 µg/mL
SMILES: CC(=O)c1ccc2c(c1)[C@H](NC(=O)c1ccc(F)cc1)[C@@H](OC(=O)CNC(C)C)C(C)(C)O2.Cl [Example 7, (3R,4S)-6-Acetyl-4-[(4-fluorobenzene)amido]-2,2-dimethyl-3,4-dihydro-2H-1-benzopyran-3-yl 2-[(propan-2-yl)amino]acetate hydrochloride]

solubility ([1]; aqueous buffer, pH 4.0): ~10000 µg/mL
SMILES: CC(=O)c1ccc2c(c1)[C@H](NC(=O)c1ccc(F)cc1)[C@@H](OC(=O)OCCN1CCOCC1)C(C)(C)O2.Cl [Example 8, (3R,4S)-6-Acetyl-4-[(4-fluorobenzene)amido]-2,2-dimethyl-3,4-dihydro-2H-1-benzopyran-3-yl 2-(morpholin-4-yl)ethyl carbonate hydrochloride]
